{"source": "patent US20160137746A1", "about": "“METHODS FOR TREATING HIGH CARDIOVASCULAR RISK PATIENTS WITH HYPERCHOLESTEROLEMIA” (Sanofi Biotechnology, priority 2014, published 2016)", "system": "high cardiovascular risk patients with hypercholesterolemia", "experiment": "ODYSSEY LONG TERM: lipid efficacy of alirocumab 150 mg Q2W vs placebo", "assay_type": "in vivo, human", "conditions": "for Percent change from baseline in calculated LDL-C at week 24 (%), LS means (SE) / Percent change from baseline in calculated LDL-C at week 24, LS mean difference (SE) vs placebo / Calculated LDL-C percent change from baseline, LS mean (SE): ITT population; for Percent change from baseline in calculated LDL-C at week 24 (%), LS means (SE) / Percent change from baseline in calculated LDL-C at week 24, LS mean difference (SE) vs placebo: 150 Q2W; for Calculated LDL-C percent change from baseline, LS mean (SE): MMRM, alirocumab 150 Q2W", "method": "Patients were stratified according to heFH population, prior history of MI or ischemic stroke, statin treatment and geographic region. Patients at high cardiovascular risk were defined as 1) having heFH (who may or may not have CHD/CHD risk equivalents) or 2) no prior diagnosis of heFH but having hypercholesterolemia together with established CHD or CHD risk equivalents.\nPrimary analyses of efficacy endpoints were conducted using an ITT approach (based on the ITT population defined above), including all lipid data, regardless of whether the patient was continuing therapy or not. This corresponds to ITT estimands, defined for primary and key secondary endpoints. In addition, analyses were also conducted using an on-treatment approach (based on the mITT population defined above), including lipid data collected during the efficacy treatment period. This corresponds to on-treatment estimands of key secondary endpoints.\nWith regards to the primary efficacy analysis (ITT approach), the percent change in calculated LDL-C from baseline to Week 24 was analyzed using a mixed-effect model with repeated measures (MMRM) approach. All post-baseline data available from Week 4 to Week 52 analysis windows were used and missing data were accounted for by the MMRM. […] This model provided baseline adjusted least-squares means (LSmeans) estimates at Week 24 for both treatment groups with their corresponding SEs and 95% confidence intervals.\nContinuous secondary variables anticipated to have a normal distribution (i.e., lipids other than TGs and Lp(a)) were analyzed using the same MMRM model as for the primary endpoint. […] Combined estimate for mean in both treatment groups, as well as the differences of these estimates, with their corresponding SEs, 95% Cls and p-value were provided (through SAS MIANALYZE procedure).\nBinary secondary efficacy endpoints were analyzed using multiple imputation approach for handling of missing values followed by stratified logistic regression with treatment group as main effect and corresponding baseline value(s) as covariate, stratified by randomization factors (as per IVRS). Combined estimates of odds ratio versus placebo, 95% CI, and p-value were provided (through SAS MIANALYZE procedure).", "key": {"[1]": {"conditions": "On-treatment analysis, 150 Q2W (N = 1523)"}, "[2]": {"conditions": "On-treatment analysis, 150 Q2W (N = 1523), combined estimate for adjusted mean (SE)"}, "[3]": {"conditions": "Pattern Mixture Model sensitivity analysis, 150 Q2W (N = 1523)"}, "[4]": {"conditions": "Week 24, free PCSK9 levels at or above the median"}, "[5]": {"conditions": "Week 24, free PCSK9 levels below the median"}}, "note": "Several values for one entry are separate records, joined by “and”; a condition that tells them apart may be missing. Equal entries are not always repeated.", "data": [{"substance": "Alirocumab: human anti-PCSK9 antibody; HCVR SEQ ID NO:1, LCVR SEQ ID NO:6; CDRs SEQ ID NOs 2/3/4/7/8/10", "values": [{"measurement": "Percent change from baseline in calculated LDL-C at week 24 (%), LS means (SE)", "setting": "HeFH population (271 patients)", "value": "−56.3 (1.9) %"}, {"measurement": "Percent change from baseline in calculated LDL-C at week 24, LS mean difference (SE) vs placebo", "setting": "HeFH population", "value": "−63.2 (2.9) %"}, {"measurement": "Calculated LDL-C percent change, LS mean difference vs placebo", "setting": "ITT, Week 24", "value": "−61.9", "unit": "%"}, {"measurement": "Calculated LDL-C, LS mean percent change from baseline", "setting": "ITT, Week 24", "value": "−61.0", "unit": "%"}, {"measurement": "Measured LDL-C, LS mean percent change from baseline", "setting": "ITT, Week 24", "value": "−61.3", "unit": "%"}, {"measurement": "Very high CV risk or high CV risk patients who reached calculated LDL-C <70 mg/dL or <100 mg/dL, respectively", "setting": "ITT, Week 24", "value": 80.7, "unit": "%"}, {"measurement": "Proportion of patients reaching calculated LDL-C <70 mg/dL", "setting": "ITT, Week 24, listed as alirocumab", "value": "79.3% and 79%"}, {"measurement": "Percent change from baseline in calculated LDL-C at week 24 (%), LS means (SE)", "setting": "Non-HeFH population (1259 patients)", "value": "−62.1 (0.8) %"}, {"measurement": "Percent change from baseline in calculated LDL-C at week 24, LS mean difference (SE) vs placebo", "setting": "Non-HeFH population", "value": "−61.5 (1.4) %"}, {"measurement": "Apo A1, LS mean (SE) change from baseline to Week 24 (%)", "setting": "[1]", "value": "4.2 (0.4) %"}, {"measurement": "Apo A1, LS mean difference (SE) vs placebo, percent change from baseline at Week 24", "setting": "[1]", "value": "2.9 (0.7) %"}, {"measurement": "Apo B, LS mean (SE) change from baseline to Week 24 (%)", "setting": "[1]", "value": "−54.3 (0.7) %"}, {"measurement": "Apo B, LS mean difference (SE) vs placebo, percent change from baseline at Week 24", "setting": "[1]", "value": "−55.5 (1.2) %"}, {"measurement": "Calculated LDL-C, LS mean (SE) change from baseline to Week 24 (%)", "setting": "[1]", "value": "−62.8 (0.7) %"}, {"measurement": "Calculated LDL-C, LS mean difference (SE) vs placebo, percent change from baseline at Week 24", "setting": "[1]", "value": "−63.5 (1.2) %"}, {"measurement": "HDL-C, LS mean (SE) change from baseline to Week 24 (%)", "setting": "[1]", "value": "4.2 (0.4) %"}, {"measurement": "HDL-C, LS mean difference (SE) vs placebo, percent change from baseline at Week 24", "setting": "[1]", "value": "4.9 (0.7) %"}, {"measurement": "Non-HDL-C, LS mean (SE) change from baseline to Week 24 (%)", "setting": "[1]", "value": "−53.1 (0.6) %"}, {"measurement": "Non-HDL-C, LS mean difference (SE) vs placebo, percent change from baseline at Week 24", "setting": "[1]", "value": "−53.7 (1.0) %"}, {"measurement": "Total cholesterol, LS mean (SE) change from baseline to Week 24 (%)", "setting": "[1]", "value": "−38.8 (0.5) %"}, {"measurement": "Total cholesterol, LS mean difference (SE) vs placebo, percent change from baseline at Week 24", "setting": "[1]", "value": "−38.4 (0.8) %"}, {"measurement": "Lipoprotein (a), LS mean difference (SE) vs placebo, percent change from baseline at Week 24", "setting": "[2]", "value": "−26.3 (1.3) %"}, {"measurement": "Lipoprotein (a), change from baseline to Week 24 (%)", "setting": "[2]", "value": "−30.2 (0.7) %"}, {"measurement": "Triglycerides, LS mean difference (SE) vs placebo, percent change from baseline at Week 24", "setting": "[2]", "value": "−17.2 (1.4) %"}, {"measurement": "Triglycerides, change from baseline to Week 24 (%)", "setting": "[2]", "value": "−15.8 (0.8) %"}, {"measurement": "Calculated LDL-C percent change, LS mean difference vs placebo", "setting": "On-treatment, Week 24", "value": "−63.5", "unit": "%"}, {"measurement": "Proportion of patients reaching calculated LDL-C <70 mg/dL", "setting": "On-treatment, Week 24", "value": 81.2, "unit": "%"}, {"measurement": "Very high CV risk or high CV risk patients who reached calculated LDL-C <70 mg/dL or <100 mg/dL, respectively", "setting": "On-treatment, Week 24", "value": 82.8, "unit": "%"}, {"measurement": "Calculated LDL-C, LS mean (SE) change from baseline to Week 24 (%)", "setting": "[3]", "value": "−57.8 (0.8) %"}, {"measurement": "Calculated LDL-C, LS mean difference (SE) vs placebo, percent change from baseline at Week 24", "setting": "[3]", "value": "−58.5 (1.3) %"}, {"measurement": "Calculated LDL-C percent change from baseline, LS mean (SE)", "setting": "Week 4", "value": "−64.8", "unit": "%"}, {"measurement": "Calculated LDL-C percent change from baseline, LS mean (SE)", "setting": "Week 8", "value": "−65.8", "unit": "%"}, {"measurement": "Apo-B - Percent change from baseline to Week 12, LS mean difference vs. placebo", "setting": "Week 12, ITT", "value": "placebo of −56%"}, {"measurement": "Apolipoprotein A1 - Percent change from baseline to Week 12, LS mean difference vs. placebo", "setting": "Week 12, ITT", "value": "placebo of 4%"}, {"measurement": "Calculated LDL-C - Percent change from baseline to Week 12, LS mean difference vs. placebo", "setting": "Week 12, ITT", "value": "placebo of −64.8%"}, {"measurement": "Fasting TGs - Percent change from baseline to Week 12, combined estimate for adjusted mean difference vs. placebo", "setting": "Week 12, ITT", "value": "vs. placebo of −17.9%"}, {"measurement": "HDL-C - Percent change from baseline to Week 12, LS mean difference vs. placebo", "setting": "Week 12, ITT", "value": "placebo of 5.6%"}, {"measurement": "Lp(a) - Percent change from baseline to Week 12, combined estimate for adjusted mean difference vs. placebo", "setting": "Week 12, ITT", "value": "vs. placebo of −25.1%"}, {"measurement": "Non-HDL-C - Percent change from baseline to Week 12, LS mean difference vs. placebo", "setting": "Week 12, ITT", "value": "placebo of −54.6%"}, {"measurement": "Total-C - Percent change from baseline to Week 12, LS mean difference vs. placebo", "setting": "Week 12, ITT", "value": "placebo of −39%"}, {"measurement": "Calculated LDL-C percent change from baseline, LS mean (SE)", "setting": "Week 12", "value": "−63.3", "unit": "%"}, {"measurement": "Calculated LDL-C - Percent change from baseline to Week 12, LS mean difference vs. placebo", "setting": "Week 12, On-treatment", "value": "placebo of −65.5%"}, {"measurement": "Calculated LDL-C percent change from baseline, LS mean (SE)", "setting": "Week 16", "value": "−64.5", "unit": "%"}, {"measurement": "Calculated LDL-C percent change, LS mean difference vs placebo", "setting": "[4]", "value": "−66.0", "unit": "%"}, {"measurement": "Calculated LDL-C, LS mean percent change from baseline", "setting": "[4]", "value": "−62.7", "unit": "%"}, {"measurement": "Calculated LDL-C percent change, LS mean difference vs placebo", "setting": "[5]", "value": "−58.0", "unit": "%"}, {"measurement": "Calculated LDL-C, LS mean percent change from baseline", "setting": "[5]", "value": "−59.4", "unit": "%"}, {"measurement": "Calculated LDL-C percent change, LS mean difference vs placebo", "setting": "Week 24, men", "value": "−64.7", "unit": "%"}]}]}
